# Measured values: patent US20220184003A1, “Formulations of Cannabidiol Derivatives and Their Use as Modulators of Cannabinoid Receptor Type 2 (CB2)” (EMERALD HEALTH PHARMACEUTICALS INC, priority 2019, published 2022)
# Key:
# [1] = Turbidimetric aqueous solubility (estimated precipitation range); format: physicochemical; details: aqueous solubility test at 37° C.
# [2] = physchem; details: pH 7.4
# Description: Lipophilicity is a key determinant of the PK behavior of drugs. It can influence distribution into tissues, absorption and the binding characteristics of a drug, as well as being an important factor in determining the solubility of a compound. Log D (distribution co-efficient) is used as a measure of lipophilicity.
# The solution was transferred to tubes, centrifuged and the supernatant is drawn off the top, leaving any solid compound in the bottom. This supernatant was then syringe filtered through 0.2 μm filters to produce the initial solution. Three vials were prepared containing values. […] The vials were mixed to equilibrium, then centrifuged to ensure the two phases were fully separated before the octanol was removed and the buffer samples analyzed. For the quantitative analysis, the aqueous solutions were analyzed by LC MS/MS. The amount of VCE-004.8 in each vial was quantified against a 6 points standard curve which was produced by serially diluting the initial solution. Log D was calculated using the equation, shown in FIG. 7, wherein ConcINITlAL is a concentration of compound in the initial aqueous solution, ConcFINAL is a concentration of compound in final aqueous phase, Vaq is a volume of aqueous phase, and Voct is a volume of octanol phase.
# [3] = Solubility of VCE-004.8 and its phytosomes in buffer medium at various pH; format: physicochemical; details: 37 °C, thermodynamic from solid
# Method: The solubility of Phytosome-VCE-004.8 was tested in buffer medium at various pH (1.2, 4, 5, 6, […] and 8.0). For each pH, independent supersaturated solutions of VCE-004.8 and its phytosomes were prepared. The suspensions w ere sonicated for 10 min and kept in a water bath at 37° C. for 2 hr. Then the final suspensions were filtered (with 0.45 PTFE disposable fitter) and the solutions were injected for HPLC analysis. […] The 1:2 ratio resulted to be slightly more soluble than the 1:1 ration, and the best behavior was shown at neutral and basic pH. Accordingly. Phytosome 1:2 was selected for following assessment of PK profile in rats (Formulation n°8). Phytosome 1:2 contained 24% of VCE-004.8 and was prepared in Methyl cellulose 1% in water for oral administration.
# [4] = target: CB1 receptor (Homo sapiens, UniProt P21554); assay: Receptor screening study, CB1 receptor affinity; format: binding
# [5] = system: Experimental Autoimmune Encephalomyelitis (EAE) model; assay: Experimental autoimmune encephalomyelitis model; format: in vivo, C57BL/6 female mice
# Method: EAE was induced in C57BL/6 female mice at 6-8 weeks of age by subcutaneous immunization with MOG35-55 (300 μg: peptide synthesis section, CBM, CSIC. Madrid, Spain) and 200 μg of Mycobacterium tuberculosis (H37Ra Difco, Franklin Lakes, N.J., USA) in a 1:1 mix with […]. On the same day and 2 days later, mice were injected intraperitoneally with 200 ng of pertussis toxin (Sigma) in 0.1 mL PBS. […] The mice were examined daily for clinical signs of EAE and disease scores were measured as follows: 0, no disease; 1, limb tail; 2, limb tail and hind limb weakness; 3, hind limb paralysis; 4, hind limb and front limb paralysis; 5, moribund and death. All animals were sacrificed at 28 days for further analysis,
# Mice were anesthetized by i.p. administration with a ketamine-xylazine solution and they were transcardially perfused with saline 0.9%. The spinal cord was obtained by extrusion with saline. […]
# For IHC analysis, free-floating thoracic spinal cord (50 μm) sections were washed with 0.1M PB. […] Samples were photographed, digitalized using a Leica DFC420c camera and analyzed using Image J software. Myelin integrity was analyzed using the Hito CryoMyelmStain™ Kit (Gold phosphate complex Myelin Staining Kit) following manufacturer's recommendation (Hitobiotech Corp., Kingsport, Tenn., USA). […]
# Chain of CB1 receptor (P21554 whole entry): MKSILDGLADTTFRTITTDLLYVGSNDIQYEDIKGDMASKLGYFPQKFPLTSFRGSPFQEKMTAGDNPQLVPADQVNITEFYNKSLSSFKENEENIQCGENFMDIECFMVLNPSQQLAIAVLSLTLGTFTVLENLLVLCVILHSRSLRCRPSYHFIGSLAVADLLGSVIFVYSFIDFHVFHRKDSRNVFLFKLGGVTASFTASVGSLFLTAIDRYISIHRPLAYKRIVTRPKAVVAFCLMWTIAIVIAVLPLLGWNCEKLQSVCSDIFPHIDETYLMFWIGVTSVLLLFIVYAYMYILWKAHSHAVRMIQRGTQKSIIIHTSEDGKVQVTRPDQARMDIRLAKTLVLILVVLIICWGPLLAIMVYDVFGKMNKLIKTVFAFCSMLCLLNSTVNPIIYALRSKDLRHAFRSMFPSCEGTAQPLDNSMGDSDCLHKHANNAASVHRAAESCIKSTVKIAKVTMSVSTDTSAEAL
compound,measurement,setting,value
"C=C(C)C1CCC(C)=C[C@H]1C1=C(O)C(=O)C(CCCCC)=C(NCc2ccccc2)C1=O (stereo partly drawn) [VCE-004.8, (1′R,6′R)-3-(Benzylamine)-6-hydroxy-3′-methyl-4-pentyl-6′-(prop-1-en-2-yl)[1,1′-bi(cyclohexane)]-2′,3,6-triene-2,5-dione]","Estimated Precipitation Range, Calculated Mid-range",[1],<6.5 µM
same,"Estimated Precipitation Range, Lower Bound",[1],<1 µM
same,"Estimated Precipitation Range, Upper Bound",[1],6.5 µM
same,logD,[2],> 5
same,solubility thermodynamic at 2 h,"[3]; pH 1.2, simulated gastric fluid",5 ng/mL
same,solubility thermodynamic at 2 h,"[3]; pH 4.5, aqueous buffer",5 ng/mL
same,solubility thermodynamic at 2 h,"[3]; pH 6.8, aqueous buffer",3 ng/mL
same,solubility thermodynamic at 2 h,"[3]; pH 7.4, aqueous buffer",1 ng/mL
same,solubility thermodynamic at 2 h,"[3]; pH 8, aqueous buffer",1 ng/mL
same,affinity for the CB1 receptor,[4]; at a concentration of 10 μM (4336 ng/mL),did not show affinity
same,affinity for the CB1 receptor,[4]; receptor screening study,no detectable affinity
same,microglial reactivity and infiltration of inflammatory cells,"[5]; EAE animals, myelin structure preserved",significantly reduced
same,therapeutic effect in EAE model,"[5]; doses of 5 mg/kg, 10 mg/kg, and 20 mg/kg",highly significant therapeutic effect
